What was measured:
[1] = tested on: smooth muscle of tracheal rings; assay: spasmodic contraction of tracheal rings ex vivo (histamine-induced); set-up: species or system Dunkin-Hartley guinea pigs; conditions: mean±SEM
Protocol: The magnitude of the relaxing effect of the peptides was evaluated by means of a model of spasmodic contraction of tracheal rings ex vivo, largely employed to test new bronchodilating agents (see CULLUM, V. A., FARMER, J. B., JACK, D., LEVY, G. P. Salbutamol: a new, selective β-adrenoceptive receptor stimulant. British journal of pharmacology, 35(1): 141-151. 1969; KAO, C. H., CHU, Y. H., WANG, H. W. Effects of lidocaine on rat's isolated tracheal smooth muscle. European Archives of Oto-Rhino-Laryngology, 267(5): 817-820. 2010; SORIANO-URSÚA, M. A., VALENCIA-HERNÁNDEZ, I., ARELLANO-MENDOZA, M. G., CORREA-BASURTO, J., TRUJILLO-FERRARA, J. G. Synthesis, pharmacological and in silico evaluation of 1-(4-dihydroxy-3, 5-dioxa-4-borabycyclo [4.4.0] deca-7,9,11-trien-9-yl)-2-(tert-butylamine) ethanol, a compound designed to act as a β2 adrenoceptor agonist. European journal of medicinal chemistry, 44(7): 2840-2846. 2009).
For each test, Dunkin-Hartley guinea pigs (400-500 g) were euthanized in a CO2 atmosphere; subsequently, the trachea was exposed, removed and sectioned in segments of 1 to 3 cartilaginous tracheal rings. Each segment was transferred to an individual organ bath system containing Krebs nutritive solution (NaCl 118 mM; KCl […]; CaCl2) 2.5 mM; MgSO4 1.2 mM; KH2PO4 1.2 mM; NaHCO324 mM; glucose 11 mM) at 37° C., under constant aeration with a carbogenic mixture (95% of O2 and 5% of CO2). In each system, a stem fixed to the base of the container and another connected to an isometric transducer (GRASS FT-03) made up the support of the fragments. A data digitizing system connected to the isometric transducer allowed the recording of tension variations produced by the contraction of the tracheal rings (PowerLab™ 16/30, LabChart, version 8.1, AD Instruments, Australia). The basal tension was adjusted to 1 g, and subsequently, the contractility of the fragments was evaluated by a stimulus with carbachol (2.5 μM). After 1 h at rest, the basal tension was recovered and the tissues were subjected to contraction induced by histamine (50 μM) followed by exposure to increasing concentrations of the treatments (0.01 to 10 μM; n=8) or the comparator PnTx(19).
Table 1 lists the mean±SEM of the potency values, shown as the negative logarithm of the concentration that reduced the voltage to 50% of the maximum Histamine-induced contraction (pEC50), and efficacy (Emax), calculated from at least 8 independent tests using the sigmoid nonlinear regression equation of the software Graph Prism 5.0 (GraphPad Software, La Jolla, Ca, USA).

cavernosal strips = assay: relaxation induced by electric stimuli in cavernosal strips pre-contracted with phenylephrine ex vivo; set-up: species or system rats of Sprague Dawley (SD) lineage; conditions: peptides 10^−10 M; 10^−8 M; 10^−6 M; FIG. 3
Protocol: The relaxing potential of the peptides of the present invention on the smooth muscles of cavernous strips was evaluated ex vivo using tissue isolated from rats, a model that is largely used to test drug candidates for the treatment of ED (ITALIANO, G., CALABRÒ, A., PAGANO, F. A simplified in vitro preparation of the corpus cavernosum as a tool for investigating erectile pharmacology in the rat. Pharmacological research, 30(4): 325-334. 1994; GEMALMAZ, H., WALDECK, K., CHAPMAN, T. N., TUTTLE, J. B., STEERS, W. D., ANDERSSON, K E. In vivo and in vitro investigation of the effects of sildenafil on rat cavernous smooth muscle. The Journal of Urology, 165(3): 1010-1014.2001).
Male rats of Sprague Dawley (SD) lineage were sacrificed by guillotine; the penises were removed surgically and placed on a Petri dish containing Krebs—bicarbonate solution (NaCl 118.1 mM; KCl 4.7 mM; KH2PO4 1.0 mM; MgSO4 1.0 mM; NaHCO3 25.0 mM; CaCl2) 2.5 mM and Glucose 11.1 mM). The corpus cavernosum were dissected by removing the glans, urethra, spongeous body and dorsal vein, and then separated by cutting the fibrous septum between them. Cavernosal strips measuring 2×2×7 mm were mounted separately in a bath for isolated organs containing bicarbonate solution-Krebs (pH 7.4) at 37° C., aerated with 95% of O02 and 5% of CO2. The tissue was connected to a tension transducer and the changes in tension were continuously registered. The cavernosal strips were contracted with phenylephrine (10^−5 M) and subsequently relaxed by electrical stimulation at different frequencies (1 to 32 Hz). […] Differences in the percentage of relaxation between treatment and control were evaluated with regard to statistical significance by means of two-way variance analysis (Two-Way ANOVA) followed by Bonferroni post-test. For the comparison between the treatments and control in light of the stimulation in a single frequency, the results were evaluated by one-way analysis variance (One-Way ANOVA) followed by Bonferroni post-test. […]

For “RQYFWIAWYKLANSK [SEQ ID NO: 5, Ac-Arg-Gln-Tyr-Phe-Trp-Ile-Ala-Trp-Tyr-Lys-Leu-Ala-Asn-Ser-Lys-NH2]”, the “Effectiveness (Emax) (%)” value ([1]; relaxation of tracheal rings contracted by histamine (50 μM)) was “Inactive”, the “Potency (pEC50) Molar” value ([1]; tracheal rings contracted by histamine (50 μM), peptides 0.01 to 10 μM) was “Inactive” and the “enhancing effect on relaxation induced by electric stimuli in strips of cavernous body contracted by phenylephrine” value (cavernosal strips) was “enhancing effect”.

Reference: patent publication US10905738B2, “Synthetic peptides, prodrugs, pharmaceutical compositions and uses” (Biozeus Desenvolvimento De Produtos Biofarmacêuticos, priority 2018, dated 2021)
